The values below come from publication PMC9740789, “Investigation of In Vitro and In Vivo Metabolism of α-Amanitin in Rats Using Liquid Chromatography-Quadrupole Time-of-Flight Mass Spectrometric Method” (Molecules, 2022).

A short description of data set [1]: in vivo. It is filed as in vivo, rat. The procedure:
The above developed LC-qTOF-MS method was applied to obtain the PK parameters after IV and PO administration in rat. Most of the PK samples were within the qualified calibration curve, except the 2 min-time point samples in the IV group which were slightly above the upper limit of quantification (ULOQ). Since the calibration curve was linear in the range of quantification, the concentrations of these early time point IV samples have been calculated by extrapolation of the calibration curve which is also applicable for discovery study in pharmaceutical industries. The PK parameters were calculated with the non-compartmental analysis (NCA) using WinNonlin® version 8.1.0 (Certara, Princeton, NJ, USA) and the results are summarized in Table 6.
Animal Male SD rats (320 ± 10 g) were purchased from the Samtako Biokorea co. (Gyeonggi, Republic of Korea) and housed in a group of four units per cage and given standard rodent chow. The rats were fasted overnight with free access to water for 12 h before administration. The formulation was prepared by dissolving α-amanitin in normal saline (NS) and DMSO (4:1, v/v).
The rats with femoral artery and femoral vein cannulation were prepared for the IV administration, and the rats with single femoral artery cannulation were prepared for the PO administration. The cannulated SD rats were given 1 mg/kg of α-amanitin by either IV bolus or PO (n = 4, both). After administration of α-amanitin, blood sample was collected through a femoral artery cannula and transferred into a heparin-containing tube at each sampling time point (IV: 2, 5, 15, 30, 60, 120, 240, 480, and 1440 min after drug administration and PO: 5, 15, 30, 60, 120, 240, 480, and 1440 min after drug administration). Then plasma sample was obtained by centrifuging the blood sample at 13,000 rpm for 5 min. The obtained plasma samples were stored at –20 °C until analysis. After analysis, the PK parameter was calculated using WinNonlin®.

Data set [2] is described as follows: Rat in vivo MetID in pooled rat plasma. The following applies: pooled rat plasma after IV 1 mg/kg. The procedure:
Therefore, in vitro and in vivo MetID were conducted to explore any possible different metabolites between the two systems. The in vitro and in vivo MetID samples were analyzed by a LC-qTOF-MS, and the data were used to elucidate a metabolite of α-amanitin using PeakView® and MetabolitePilot™. The structure of the metabolite of α-amanitin was predicted by MetabolitePilot™. The fragmentation pattern of the predicted metabolite ion from product ion scan was compared to the fragmentation pattern of the parent ion using PeakView®.
For rat in vivo MetID, rat plasma samples collected after IV administration of α-amanitin with the dose of 1 mg/kg were pooled according to the Hamilton pooling method. Then 3 μL of DMSO was added to the 300 μL of pooled rat plasma. A control sample was made by mixing 300 μL of blank rat plasma and 3 μL of 0.5 mg/mL α-amanitin. Eight hundred microliter of 50% ACN in MeOH was added to the pooled rat plasma mixture and a control sample, respectively. Then the mixture was centrifuged at 10,000 rpm for 5 min. Then 900 μL of the supernatants was collected to a fresh E-tube and evaporated for 4 h. After evaporation, samples were reconstituted with 120 μL of 50% MeOH with 5 mM ammonium formate. After centrifugation at 10,000 rpm for 5 min, 100 μL of reconstituted sample was transferred to a LC-vial.
The high-resolution TOF full scan was used for metabolite profiling. […]

Data set [3] can be described thus: Semi-mass balance study in rats. Format: in vivo, rat. The following applies: for dose excreted: Sprague-Dawley, rat. The method, then: The excretion characteristic of α-amanitin after IV and PO administration is shown in Table 7, and the time to recovery of α-amanitin profile is shown in Figure 5. The recovery represents the percentage of the excreted amount (mg) to the administrated amount (mg).
A semi-mass balance study was performed to explore the major elimination route of α-amanitin in rats. A non-radiolabeled α-amanitin was used for the semi-mass balance study which seems acceptable due to low metabolic turn-over of α-amanitin.
For the semi-mass balance study, the housed rats were prepared with a bile duct cannulation and administrated by IV bolus in a lateral tail vein or by PO at 1 mg/kg for each dosing route. Urine and feces were collected using a metabolic cage (Jeungdo Bio & Plant co., Seoul, Republic of Korea), and bile was collected through a bile duct cannula. The sampling time interval were 0–4, 4–8, 8–24, and 24–48 h after administration. The urine, bile, and feces samples were stored at –20 °C until further analysis.

The mark [4] stands for this setting: rat, in vivo, male SD rats, IV bolus 1 mg/kg, plasma, NCA, n = 4.

Like-named read-outs stand apart in the source and are kept apart here.

As usually defined, the AUC(0-t) is the area under the concentration-time curve up to a stated or last time point. A higher AUC(0-t) goes with more exposure. As a reminder, the clearance is the rate of elimination divided by the concentration. A higher clearance goes with efficient removal. In general, half-life refers to the time in which the quantity being followed falls by half. Low values mean rapid decline, high ones slow decline. As usually defined, the Cmax is the highest concentration seen after dosing. Turning to `CC[C@H](C)[C@@H]1NC(=O)CNC(=O)[C@@H]2Cc3c([nH]c4cc(O)ccc34)[S@+]([O-])C[C@H](NC(=O)CNC1=O)C(=O)N[C@@H](CC(N)=O)C(=O)N1C[C@H](O)C[C@H]1C(=O)N[C@@H]([C@@H](C)[C@@H](O)CO)C(=O)N2` [α-amanitin], in data set [1] (male SD rats, PO 1 mg/kg, all samples 5-1440 min, n = 4, calibration range 3.05–2220 ng/mL), the “Plasma concentration after PO administration” value is “below the LLOQ”. The “In vivo clearance as % of hepatic blood flow” value in data set [1] (rat, IV 1 mg/kg) is about 30%. In addition, the “Bioavailability (in words)” value in data set [1] (rat, PO 1 mg/kg) is on record as “very low bioavailability”. For the same molecule, the AUC(0-t) in data set [1] (setting [4]) is 1170 ng·h/mL. Also, the clearance in data set [1] (setting [4]) is 14 ± 1.3 mL/min/kg. In data set [1] (setting [4]), this molecule showed a half-life of 22.3 ± 0.98 min. The Cmax in data set [1] (rat, in vivo, male SD rats, IV bolus 1 mg/kg, plasma, NCA, n = 4, 2 min samples extrapolated above ULOQ) was 2290 ± 274 ng/mL. In addition, in data set [1] (rat, in vivo, male SD rats, IV bolus 1 mg/kg, plasma, NCA, n = 4, read-out: Vss), the Vd stood at 0.409 ± 0.0183 L/kg. Moreover, the “Other metabolites in in vivo rat plasma” value in data set [2] was “no other significant metabolites”. For the same molecule, the dose excreted was under 0.01% in data set [3] (feces, bile duct cannulated rats, IV bolus 1 mg/kg, collection 0–48 h, excreted amount/administered amount, unchanged α-amanitin, LC-qTOF-MS, read-out: Recovery in feces); 22% in data set [3] (feces, bile duct cannulated rats, PO 1 mg/kg, collection 0–48 h, excreted amount/administered amount, unchanged α-amanitin, LC-qTOF-MS, read-out: Recovery in feces); 67.9% in data set [3] (urine, bile duct cannulated rats, IV bolus 1 mg/kg, collection 0–48 h, excreted amount/administered amount, unchanged α-amanitin, LC-qTOF-MS, read-out: Recovery in urine); 1.45% in data set [3] (urine, bile duct cannulated rats, PO 1 mg/kg, collection 0–48 h, excreted amount/administered amount, unchanged α-amanitin, LC-qTOF-MS, read-out: Recovery in urine); 1% in data set [3] (bile duct cannulated rats, IV bolus 1 mg/kg, collection 0–48 h, excreted amount/administered amount, unchanged α-amanitin, LC-qTOF-MS, read-out: Recovery in bile); 0.05% in data set [3] (bile duct cannulated rats, PO 1 mg/kg, collection 0–48 h, excreted amount/administered amount, unchanged α-amanitin, LC-qTOF-MS, read-out: Recovery in bile). For the same molecule, the dose excreted in data set [3] (rats, IV 1 mg/kg, urine + bile + feces, 0–48 h, read-out: Total recovery) came out at 68.9%; in data set [3] (rats, PO 1 mg/kg, urine + bile + feces, 0–48 h, read-out: Total recovery) it was 23.5%. Further, the “Time within which most of the administered α-amanitin was excreted in urine” value in data set [3] (rats, IV 1 mg/kg) is recorded as at most 8 h.
